Experimental data published in PMC8233378, “Acyclic nucleoside phosphonates with adenine nucleobase inhibit Trypanosoma brucei adenine phosphoribosyltransferase in vitro” (Scientific Reports, 2021).

Columns and labels:
[1] = target: recombinant T. brucei APRT1 (Trypanosoma brucei brucei, UniProt Q57V32); assay: APRT1 steady-state enzyme kinetics for substrates; conditions: substrate of T. brucei APRT1
Protocol: To test if the newly synthesized ANPs with an adenine as a nucleobase can inhibit the activity of the APRT1 and APRT2, both enzymes were overexpressed in E. coli. […] First, we monitored the APRT1 enzyme activity by a continuous spectrophotometric assay measuring the conversion of adenine to AMP at 256 nm.
The methodology was adapted from Ref.[6]. Briefly, the enzyme kinetics of APRT1 were measured by a continuous spectrophotometric assay measuring the conversion of adenine to AMP, at 256 nm. The concentration of enzyme in the assay was 140 nM, the concentration of PRib-PP was kept at 1 mM and the adenine concentration varied from 3.75 to 60 μM. The reaction was carried out using a 1.0 cm path length with a UV Visible spectrometer 1601 (Shimadzu) in the reaction buffer (0.1 M Tris, pH 8.4; 0.11 M MgCl2; at 25 °C). The initial velocity (V0 [µM/min]) was calculated using Beer–Lambert law for different concentration of the purine substrate molecules: A = Δε × L × c where A is the measured absorbance, Δε is constant 2100 M^−1 cm^−1 for adenine, c is a concentration of the product formed in one minute (V0) and L is the length of a cuvette. The Km, Vmax and kcat values were calculated using GraphPad Prism 9 according to Michaelis–Menten kinetics. […] The Ki values were calculated using non-linear regression in GraphPad Prism 9.

[2] = test system: Leishmania donovani APRT1; design: method as in PMID 11900545; conditions: substrate of Leishmania donovani APRT1; cited from earlier work
[3] = test system: Normal human dermal fibroblasts (NHDF); assay: Cytotoxicity of the prodrug in human cells (CellTiter-Glo 2.0), NHDF; type: cell-based; conditions: 10 µM
Protocol: (§1) Compound cytotoxicity was evaluated in Hela S3 cancer cells and non-tumor human dermal fibroblasts (NHDF). All cell lines were obtained from ATCC (Manassas, VA, USA). The cytotoxicity was assayed using CellTiter-Glo® 2.0 detection reagent (Promega, Madison, USA) according to the manufacturer’s protocol.

HeLa S3 cells = assay: Cytotoxicity of the prodrug in human cells (CellTiter-Glo 2.0), HeLa S3; type: cell-based; conditions: HeLa S3, 10 µM
Protocol: as §1

T. brucei BSF cells = assay: Cell cycle analysis of treated trypanosomes (microscopy, flow cytometry with propidium iodide); type: cell-based, Trypanosoma brucei
Excerpt: The inhibition of the growth of T. brucei BSF in HMI-11 medium in single micromolar EC50 values (Table 1) was somewhat surprising considering the dispensability of APRT enzymes for these cells. […] To get deeper insights into the in vivo action of ANPs on APRT enzyme we tested their cytotoxicity on wild type cells grown in HMI-11^adenine medium. In this medium, the cells rely on the activity of the APRT enzyme to produce AMP and other […]. […] To corroborate this observation, we also tested cells with induced ectopic expression of V5-tagged APRT1 in both types of media and in the presence of the selected ANPs. […] The changes in the distribution of different cell cycle stages within a population were further assessed by flow cytometry assaying the DNA content by staining the cells with propidium iodide (Fig. 8A).
BFS trypanosomes in log phase were resuspended in HMI-11 medium to a density of 2 × 10^5 cells ml^−1. Test compounds at concentrations ranging from 1 to 16 µM were added to the cell suspension followed by 12 h incubation at 37 °C. The cell cycle analysis was performed as described previously. Briefly, approximately 2 × 10^6 cells were washed with PBS and fixed in 1 ml of 70% methanol in 1 × PBS and stored at 4 °C overnight. Following a PBS wash, samples were incubated with 10 µg/ml propidium iodide and 9.6 µg/ml of RNaseA at 37 °C for 45 min. Samples were analyzed on a FACS Canto II (BD) collecting 10,000 gated events.

[4] = substrate: Nc1ncnc2nc[nH]c12; assay: purified protein, by the assay type; conditions: other: substrate of T. brucei APRT1; pH 8.4; 25.0 °C
Excerpt: The APRT1 was purified as an active recombinant enzyme from the soluble fraction. […] First, we monitored the APRT1 enzyme activity by a continuous spectrophotometric assay measuring the conversion of adenine to AMP at 256 nm.

Q: Which Kcat [1] does the source give for `O=P(O)(O)OC[C@H]1O[C@H](OP(=O)(O)OP(=O)(O)O)[C@H](O)[C@@H]1O` [phosphoribosyl pyrophosphate (PRib-P), 5-phospho-α-D-ribosyl-1-pyrophosphate] here?
A: Its Kcat is 1.8 s⁻¹.

Q: What about the Km [1] of the same molecule?
A: Its Km is 162 ± 21.6 µM.

Q: What about the Km [2] of the same molecule?
A: Its Km is 25.1 ± 5.9 µM.

Q: With `CCOC(=O)[C@H](Cc1ccccc1)NP(=O)(CCN(CCN(CCP(=O)(N[C@@H](Cc1ccccc1)C(=O)OCC)N[C@@H](Cc1ccccc1)C(=O)OCC)CCP(=O)(N[C@@H](Cc1ccccc1)C(=O)OCC)N[C@@H](Cc1ccccc1)C(=O)OCC)CCn1cnc2c(N)ncnc21)N[C@@H](Cc1ccccc1)C(=O)OCC` [compound 28, Hexa-(ethyl L-phenylalanine) prodrug of (2-((2-((2-(adenine-9-yl)ethyl)(2-phosphonoethyl)amino)ethyl)(2-phosphonoethyl)amino)ethyl)phosphonic acid] as the molecule, how does the “effect on viability of NHDF (in words)” value [3] read?
A: The value was “toxic”.

Q: And the “Cytotoxicity of prodrug: NHDF viability” value ([3]; NHDF)?
A: The value was 4%.

Q: And the “Cytotoxicity of prodrug: HeLaS3 viability” value (HeLa S3 cells)?
A: The value was 94%.

Q: And the “direct microscopic observation of exposed T. brucei cells” value (T. brucei BSF cells)?
A: The value was “problems in the cell cycle”.

Q: What does the source list for `Nc1ncnc2[nH]cnc12` [adenine]?
A: Kcat [2]: 17.9 s⁻¹; Km [2]: 2.3 ± 1.1 µM

B1: recombinant T. brucei APRT1 (Trypanosoma brucei brucei TREU927) (protein)
chain: SLVEVLPNYFTLSKDSPLRKKFEKVYKWYSPAFSPHDVPRFAEVGNITENPEVMRGIRDFFVDRYKNLQQPITHILGFDSRGFLLGPMIAVELNVPFVLIRKANKIAGVIIKSEPYTKEYAAESEECMTVRFGSFDKNSRVVLIDDVIATGGTMLAGVQLVDACGATLVEVAGILGLTFLKGTQPAHTFAGGRYSNVPFVTLVDETVLSDENCGDPLHHKGSRIISCAEAKKLI
Q: What does the source list for B1?
A: Km [4]: 8.7 ± 1.9 µM; kcat [4]: 0.82 s⁻¹
